Experimental data published in patent US11649255B2, “Indazoles as hematopoietic progenitor kinase 1 (HPK1) inhibitors and methods using same” (1st Biotherapeutics, Inc., priority 2020, dated 2023).
Counter-ions that a name gives are not always drawn.

Target: recombinant human HPK1 (Homo sapiens (Human), UniProt Q92918)
Assay: HPK1 kinase assay (ADP-Glo)
Assay type: biochemical
Conditions: 25 μM ATP, MBP substrate
Outline: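 Activity was read as ADP formed, detected by ADP-Glo luminescence after the reaction of 5 ng recombinant human HPK1 with MBP and ATP (stocks 0.5 μg/μl and 25 μM) for 40 min at 30 °C. Buffer was Tris pH 7.5 with MgCl2, BSA and DTT, with compound in 0.5% DMSO. IC50 came from inhibition curves.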

Chain of recombinant human HPK1 (Q92918 whole entry): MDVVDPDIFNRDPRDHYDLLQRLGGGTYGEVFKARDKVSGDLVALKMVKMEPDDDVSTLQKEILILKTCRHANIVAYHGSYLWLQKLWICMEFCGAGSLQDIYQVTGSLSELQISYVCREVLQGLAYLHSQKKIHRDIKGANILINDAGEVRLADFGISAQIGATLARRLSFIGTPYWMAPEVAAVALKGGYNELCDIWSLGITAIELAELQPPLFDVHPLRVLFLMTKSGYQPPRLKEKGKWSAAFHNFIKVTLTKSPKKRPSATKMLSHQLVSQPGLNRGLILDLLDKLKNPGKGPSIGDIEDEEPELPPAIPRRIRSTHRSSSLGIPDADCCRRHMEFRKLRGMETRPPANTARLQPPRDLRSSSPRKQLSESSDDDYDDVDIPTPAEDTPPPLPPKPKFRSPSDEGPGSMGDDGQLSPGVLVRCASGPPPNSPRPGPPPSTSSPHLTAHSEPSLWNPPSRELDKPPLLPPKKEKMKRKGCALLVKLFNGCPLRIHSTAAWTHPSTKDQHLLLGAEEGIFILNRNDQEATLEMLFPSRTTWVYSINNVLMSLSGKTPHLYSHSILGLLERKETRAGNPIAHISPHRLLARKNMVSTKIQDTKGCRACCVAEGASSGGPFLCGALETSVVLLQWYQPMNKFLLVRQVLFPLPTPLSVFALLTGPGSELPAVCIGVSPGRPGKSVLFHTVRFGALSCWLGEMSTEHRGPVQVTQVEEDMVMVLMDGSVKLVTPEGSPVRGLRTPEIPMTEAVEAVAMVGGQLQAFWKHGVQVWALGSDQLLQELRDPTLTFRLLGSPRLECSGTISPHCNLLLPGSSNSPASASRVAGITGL

Compound | IC50
CN(C)C1CCC(Nc2c(F)c(Cl)c(-c3ccn4nc(NC(=O)[C@@H]5C[C@@H]5F)cc4c3)c3cn[nH]c23)CC1 (stereo partly drawn) [Example 512, (1S,2S)-N-(5-(5-chloro-7-((4-(dimethylamino)cyclohexyl)amino)-6-fluoro-1H-indazol-4-yl)pyrazolo[1,5-a]pyridin-2-yl)-2-fluorocyclopropane-1-carboxamide] | < 100 nM
NC1CCC(Nc2c(F)c(Cl)c(-c3ccn4nc(NC(=O)[C@@H]5C[C@@H]5F)cc4c3)c3cn[nH]c23)CC1 (stereo partly drawn) [Example 515, (1S,2S)-N-(5-(7-((4-aminocyclohexyl)amino)-5-chloro-6-fluoro-1H-indazol-4-yl)pyrazolo[1,5-a]pyridin-2-yl)-2-fluorocyclopropane-1-carboxamide] | < 100 nM
CC(C)(C)OC(=O)NC1CCC(Nc2c(F)c(Cl)c(-c3ccn4nc(NC(=O)[C@@H]5C[C@@H]5F)cc4c3)c3cn[nH]c23)CC1 (stereo partly drawn) [Example 516, tert-butyl (4-((5-chloro-6-fluoro-4-(2-((1S,2S)-2-fluorocyclopropane-1-carboxamido)pyrazolo[1,5-a]pyridin-5-yl)-1H-indazol-7-yl)amino)cyclohexyl)carbamate] | < 100 nM
O=C(Nc1cc2cc(-c3c(Cl)c(F)c(NC4CCC(O)CC4)c4[nH]ncc34)ccn2n1)[C@@H]1C[C@@H]1F (stereo partly drawn) [Example 517, (1S,2S)-N-(5-(5-chloro-6-fluoro-7-((4-hydroxycyclohexyl)amino)-1H-indazol-4-yl)pyrazolo[1,5-a]pyridin-2-yl)-2-fluorocyclopropane-1-carboxamide] | < 100 nM
CCc1c(F)c(N(C)C)c2[nH]ncc2c1-c1ccn2nc(NC(=O)[C@@H]3C[C@@H]3F)cc2c1 [Example 519, (1S,2S)-N-(5-(7-(dimethylamino)-5-ethyl-6-fluoro-1H-indazol-4-yl)pyrazolo[1,5-a]pyridin-2-yl)-2-fluorocyclopropane-1-carboxamide] | < 100 nM
CCc1c(F)c(SCC(=O)N(C)C)c2[nH]ncc2c1-c1ccn2nc(NC(=O)[C@@H]3C[C@@H]3F)cc2c1 [Example 522] | < 100 nM
Cc1c(F)c(OCCOC(N)=O)c2[nH]ncc2c1-c1ccn2nc(NC(=O)[C@@H]3C[C@@H]3F)cc2c1 [Example 535, 2-((6-fluoro-4-(2-((1S,2S)-2-fluorocyclopropane-1-carboxamido)pyrazolo[1,5-a]pyridin-5-yl)-5-methyl-1H-indazol-7-yl)oxy)ethyl carbamate] | < 100 nM
O=C(Nc1cc2cc(-c3c(Cl)c(F)c(F)c4[nH]ncc34)ccn2n1)[C@@H]1C[C@@H]1F [Example 536, (1S,2S)-N-(5-(5-chloro-6,7-difluoro-1H-indazol-4-yl)pyrazolo[1,5-a]pyridin-2-yl)-2-fluorocyclopropane-1-carboxamide] | < 100 nM
CC(=O)Nc1c(F)c(Cl)c(-c2ccn3nc(NC(=O)[C@@H]4C[C@@H]4F)cc3c2)c2cn[nH]c12 [Example 537, (1S,2S)-N-(5-(7-acetamido-5-chloro-6-fluoro-1H-indazol-4-yl)pyrazolo[1,5-a]pyridin-2-yl)-2-fluorocyclopropane-1-carboxamide] | < 100 nM
CNC(=O)NCCOc1c(F)c(C)c(-c2ccn3nc(NC(=O)[C@@H]4C[C@@H]4F)cc3c2)c2cn[nH]c12 [Example 545, (1S,2S)-2-fluoro-N-(5-(6-fluoro-5-methyl-7-(2-(3-methylureido)ethoxy)-1H-indazol-4-yl)pyrazolo[1,5-a]pyridin-2-yl)cyclopropane-1-carboxamide] | < 100 nM
CNC(=O)OCCSc1c(F)c(C)c(-c2ccn3nc(NC(=O)[C@@H]4C[C@@H]4F)cc3c2)c2cn[nH]c12 [Example 546, 2-((6-fluoro-4-(2-((1S,2S)-2-fluorocyclopropane-1-carboxamido)pyrazolo[1,5-a]pyridin-5-yl)-5-methyl-1H-indazol-7-yl)thio)ethyl methylcarbamate] | < 100 nM
Cc1c(F)c(OCCNC(=O)C(F)(F)F)c2[nH]ncc2c1-c1ccn2nc(NC(=O)[C@@H]3C[C@@H]3F)cc2c1 [Example 547, (1S,2S)-2-fluoro-N-(5-(6-fluoro-5-methyl-7-(2-(2,2,2-trifluoroacetamido)ethoxy)-1H-indazol-4-yl)pyrazolo[1,5-a]pyridin-2-yl)cyclopropane-1-carboxamide] | < 100 nM
Cc1c(F)c(C(=O)O)c2[nH]ncc2c1-c1ccn2nc(NC(=O)[C@@H]3C[C@@H]3F)cc2c1 [Example 549, 6-fluoro-4-(2-((1S,2S)-2-fluorocyclopropane-1-carboxamido)pyrazolo[1,5-a]pyridin-5-yl)-5-methyl-1H-indazole-7-carboxylic acid] | > 1000 nM
O=C(O)c1c(F)c(Cl)c(-c2ccn3nc(NC(=O)[C@@H]4C[C@@H]4F)cc3c2)c2cn[nH]c12 [Example 551, 5-chloro-6-fluoro-4-(2-((1S,2S)-2-fluorocyclopropane-1-carboxamido)pyrazolo[1,5-a]pyridin-5-yl)-1H-indazole-7-carboxylic acid] | > 1000 nM
CNNc1c(F)c(Cl)c(-c2ccn3nc(NC(=O)[C@@H]4C[C@@H]4F)cc3c2)c2cn[nH]c12 [Example 553, (1S,2S)-N-(5-(5-chloro-6-fluoro-7-(2-methylhydrazineyl)-1H-indazol-4-yl)pyrazolo[1,5-a]pyridin-2-yl)-2-fluorocyclopropane-1-carboxamide] | < 100 nM
CN(c1c(F)c(Cl)c(-c2ccn3nc(NC(=O)[C@@H]4C[C@@H]4F)cc3c2)c2cn[nH]c12)C1CCC(O)C1 (stereo partly drawn) [Example 555, (1S,2S)-N-(5-(5-chloro-6-fluoro-7-((3-hydroxycyclopentyl)(methyl)amino)-1H-indazol-4-yl)pyrazolo[1,5-a]pyridin-2-yl)-2-fluorocyclopropane-1-carboxamide] | < 100 nM

More lines, now with the values ahead:

IC50 | Compound
< 100 nM | CCc1c(F)c(SC)c2[nH]ncc2c1-c1ccn2nc(NC(=O)[C@@H]3C[C@@H]3F)cc2c1 [Example 513, (1S,2S)-N-(5-(5-ethyl-6-fluoro-7-(methylthio)-1H-indazol-4-yl)pyrazolo[1,5-a]pyridin-2-yl)-2-fluorocyclopropane-1-carboxamide dihydrochloride]
< 100 nM | CN(c1c(F)c(Cl)c(-c2ccn3nc(NC(=O)[C@@H]4C[C@@H]4F)cc3c2)c2cn[nH]c12)C1CCC(N)CC1 (stereo partly shown) [Example 514]
< 100 nM | CCc1c(F)c(N(CC)CC)c2[nH]ncc2c1-c1ccn2nc(NC(=O)[C@@H]3C[C@@H]3F)cc2c1 [Example 518, (1S,2S)-N-(5-(7-(diethylamino)-5-ethyl-6-fluoro-1H-indazol-4-yl)pyrazolo[1,5-a]pyridin-2-yl)-2-fluorocyclopropane-1-carboxamide]
< 100 nM | CCc1c(F)c(SCC(=O)O)c2[nH]ncc2c1-c1ccn2nc(NC(=O)[C@@H]3C[C@@H]3F)cc2c1 [Example 526, 2-((5-ethyl-6-fluoro-4-(2-((1S,2S)-2-fluorocyclopropane-1-carboxamido)pyrazolo[1,5-a]pyridin-5-yl)-1H-indazol-7-yl)thio)acetic acid]
< 100 nM | CN(c1c(F)c(Cl)c(-c2ccn3nc(NC(=O)[C@@H]4C[C@@H]4F)cc3c2)c2cn[nH]c12)C1CCC(N)C1 (stereo partly drawn) [Example 527, (1S,2S)-N-(5-(7-((3-aminocyclopentyl)(methyl)amino)-5-chloro-6-fluoro-1H-indazol-4-yl)pyrazolo[1,5-a]pyridin-2-yl)-2-fluorocyclopropane-1-carboxamide]
< 100 nM | O=C(Nc1cc2cc(-c3c(Cl)c(F)c(O)c4[nH]ncc34)ccn2n1)[C@@H]1C[C@@H]1F [Example 528, (1S,2S)-N-(5-(5-chloro-6-fluoro-7-hydroxy-1H-indazol-4-yl)pyrazolo[1,5-a]pyridin-2-yl)-2-fluorocyclopropane-1-carboxamide]
< 100 nM | C[S+]([O-])c1c(F)c(Cl)c(-c2ccn3nc(NC(=O)[C@@H]4C[C@@H]4F)cc3c2)c2cn[nH]c12 (stereo partly drawn) [Example 538, (1S,2S)-N-(5-(5-chloro-6-fluoro-7-(methylsulfinyl)-1H-indazol-4-yl)pyrazolo[1,5-a]pyridin-2-yl)-2-fluorocyclopropane-1-carboxamide]
< 100 nM | Cc1c(F)c(OCCN(C)C(N)=O)c2[nH]ncc2c1-c1ccn2nc(NC(=O)[C@@H]3C[C@@H]3F)cc2c1 [Example 539, (1S,2S)-2-fluoro-N-(5-(6-fluoro-5-methyl-7-(2-(1-methylureido)ethoxy)-1H-indazol-4-yl)pyrazolo[1,5-a]pyridin-2-yl)cyclopropane-1-carboxamide]
< 100 nM | CN(Nc1c(F)c(Cl)c(-c2ccn3nc(NC(=O)[C@@H]4C[C@@H]4F)cc3c2)c2cn[nH]c12)C(=O)OC(C)(C)C [Example 542, tert-butyl 2-(5-chloro-6-fluoro-4-(2-((1S,2S)-2-fluorocyclopropane-1-carboxamido)pyrazolo[1,5-a]pyridin-5-yl)-1H-indazol-7-yl)-1-methylhydrazine-1-carboxylate]
< 100 nM | Cc1c(F)c(OCCNC(N)=O)c2[nH]ncc2c1-c1ccn2nc(NC(=O)[C@@H]3C[C@@H]3F)cc2c1 [Example 544, (1S,2S)-2-fluoro-N-(5-(6-fluoro-5-methyl-7-(2-ureidoethoxy)-1H-indazol-4-yl)pyrazolo[1,5-a]pyridin-2-yl)cyclopropane-1-carboxamide]
< 100 nM | COC(=O)c1c(F)c(C)c(-c2ccn3nc(NC(=O)[C@@H]4C[C@@H]4F)cc3c2)c2cn[nH]c12 [Example 548, methyl 6-fluoro-4-(2-((1S,2S)-2-fluorocyclopropane-1-carboxamido)pyrazolo[1,5-a]pyridin-5-yl)-5-methyl-1H-indazole-7-carboxylate]
< 100 nM | COC(=O)c1c(F)c(Cl)c(-c2ccn3nc(NC(=O)[C@@H]4C[C@@H]4F)cc3c2)c2cn[nH]c12 [Example 554, methyl 5-chloro-6-fluoro-4-(2-((1S,2S)-2-fluorocyclopropane-1-carboxamido)pyrazolo[1,5-a]pyridin-5-yl)-1H-indazole-7-carboxylate]
